Experimental findings from ChEMBL document CHEMBL1136443, “Structure-activity relationship of benzo[b]thiophene-2-sulfonamide derivatives as novel human chymase inhibitors” (Bioorg Med Chem Lett, 2003) are described below.

Experiment [1] deals with T1, Chymase (Homo sapiens, UniProt P23946).
T1 sequence (P23946 whole entry): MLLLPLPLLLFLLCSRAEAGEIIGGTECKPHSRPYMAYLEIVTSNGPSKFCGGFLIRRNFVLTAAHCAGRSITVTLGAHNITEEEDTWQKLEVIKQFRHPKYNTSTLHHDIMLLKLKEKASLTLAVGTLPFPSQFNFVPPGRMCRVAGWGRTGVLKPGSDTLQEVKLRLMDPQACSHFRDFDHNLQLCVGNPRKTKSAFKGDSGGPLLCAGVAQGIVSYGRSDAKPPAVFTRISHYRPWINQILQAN
Nature of the experiment: In vitro inhibitory activity against human chymase; NI Indicates no inhibition at 10 uM.

The target in experiment [2] is T1, Chymase. In words: In vitro inhibitory activity against human chymase.
Experiment [3] is described as follows: In vitro inhibitory activity against human elastase.
For the next experiment, the target named is T2, Cathepsin G (Homo sapiens, UniProt P08311).
T2 sequence (P08311 whole entry): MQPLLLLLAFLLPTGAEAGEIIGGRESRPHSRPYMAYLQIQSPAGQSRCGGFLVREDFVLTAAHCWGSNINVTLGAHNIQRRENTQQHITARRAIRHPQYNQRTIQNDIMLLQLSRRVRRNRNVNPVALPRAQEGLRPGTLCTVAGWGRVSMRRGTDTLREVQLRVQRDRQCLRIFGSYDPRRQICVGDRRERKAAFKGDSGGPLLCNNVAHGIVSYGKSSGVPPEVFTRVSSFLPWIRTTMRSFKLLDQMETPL
In words: In vitro inhibitory activity against human cathepsin G.

The species named for another experiment is Rattus norvegicus. Nature of the experiment: Percentage of compound present in rat plasma after incubation for 60 min at 37 degree C. It counts as functional, organism-based.

As to `CCCSc1ccc(NS(=O)(=O)c2sc3ccc(Cl)cc3c2C)cc1`, the IC50 (usually the concentration that inhibits the measured activity by half) against Chymase [1] was “No inhibition”.

On to `Cc1c(S(=O)(=O)Nc2ccc(C(=O)O)cc2S(C)(=O)=O)sc2ccc(F)cc12`, for which the IC50 against Chymase [2] is above 1000 nM.

Turning to `COC(=O)c1ccc(NS(=O)(=O)c2sc3ccc(C)cc3c2C)c(S(C)(=O)=O)c1`, at Chymase [2], half-maximal inhibition (IC50) required 325 nM.

As to `COC(=O)c1ccc(NS(=O)(=O)c2sc3ccc(Cl)cc3c2C)c(C(=O)OC)c1`, the half-maximal inhibitory concentration (IC50) result against Chymase [1] is “No inhibition”.

Turning to `COC(=O)c1ccc(NS(=O)(=O)c2sc3ccc(Cl)cc3c2C)c(S(C)(=O)=O)c1`, the IC50 (in experiment [3]; against Cathepsin G) was above 10000 nM throughout. The molecule further showed a Stability in the experiment filed under Rattus norvegicus of 93.9%.

The molecule `Cc1c(S(=O)(=O)Nc2ccc(CO)cc2S(C)(=O)=O)sc2ccc(F)cc12` showed an IC50 against Chymase [2] of 337 nM.

Regarding `COC(=O)c1ccc(NS(=O)(=O)c2sc3ccc(F)cc3c2C)c(S(C)(=O)=O)c1`, the IC50 (in experiment [3]; on Cathepsin G) was above 10000 nM throughout. Further, the Stability in the experiment filed under Rattus norvegicus came to 74.3%.

Consider `Cc1c(S(=O)(=O)Nc2ccc([N+](=O)[O-])cc2)sc2ccc(Cl)cc12`, for which the half-inhibitory concentration (IC50) result at Chymase [1] is recorded as “No inhibition”.

For the molecule `COCc1ccc(NS(=O)(=O)c2sc3ccc(F)cc3c2C)c(S(C)(=O)=O)c1`, at Chymase [2], the IC50 turned out to be 192 nM.

`CC(=O)c1ccc(NS(=O)(=O)c2sc3ccc(F)cc3c2C)c(S(C)(=O)=O)c1`: the half-inhibitory concentration (IC50) (in experiment [3]; against Cathepsin G) was above 10000 nM throughout. The molecule further had a Stability in the experiment listed under Rattus norvegicus of 96.2%.

In turn, `CCCS(=O)(=O)c1ccc(NS(=O)(=O)c2sc3ccc(Cl)cc3c2C)cc1` returned an IC50 against Chymase [2] of 10600 nM.

Regarding `COC(=O)c1ccc(NS(=O)(=O)c2sc3ccc(Cl)cc3c2C)c(S(C)(=O)=O)c1C`, the 50% inhibitory concentration (IC50) on Chymase [2] came to 594 nM.

`Cc1c(S(=O)(=O)Nc2ccc(C#N)cc2)sc2ccc(Cl)cc12`: the IC50 entry against Chymase [1] is “No inhibition”.

As to `Cc1c(S(=O)(=O)Nc2ccc(C=O)cc2S(C)(=O)=O)sc2ccc(F)cc12`, the half-maximal inhibitory concentration (IC50) at Chymase [2] is above 1000 nM.

As for `Cc1c(S(=O)(=O)Nc2ccc(C(N)=O)cc2S(C)(=O)=O)sc2ccc(F)cc12`, the IC50 against Chymase [2] was above 1000 nM.
